Data on 10 molecules can be found in article PMC3256212, “Mechanism and Function of Drosophila capa GPCR: A Desiccation Stress-Responsive Receptor with Functional Homology to Human NeuromedinU Receptor” (PLoS ONE, 2012).

Ends that are not written are not given here.

One assay concerns the target T1, capaR (CG14575) (Drosophila melanogaster, UniProt Q8ITC7).
T1 construct: The ORF of capaR was amplified from whole fly cDNA as template; expressed in transfected cells; host or cells: Drosophila S2 cells (pMT/V5-His TOPO, CuSO4 induction)
T1 sequence (Q8ITC7 1-477): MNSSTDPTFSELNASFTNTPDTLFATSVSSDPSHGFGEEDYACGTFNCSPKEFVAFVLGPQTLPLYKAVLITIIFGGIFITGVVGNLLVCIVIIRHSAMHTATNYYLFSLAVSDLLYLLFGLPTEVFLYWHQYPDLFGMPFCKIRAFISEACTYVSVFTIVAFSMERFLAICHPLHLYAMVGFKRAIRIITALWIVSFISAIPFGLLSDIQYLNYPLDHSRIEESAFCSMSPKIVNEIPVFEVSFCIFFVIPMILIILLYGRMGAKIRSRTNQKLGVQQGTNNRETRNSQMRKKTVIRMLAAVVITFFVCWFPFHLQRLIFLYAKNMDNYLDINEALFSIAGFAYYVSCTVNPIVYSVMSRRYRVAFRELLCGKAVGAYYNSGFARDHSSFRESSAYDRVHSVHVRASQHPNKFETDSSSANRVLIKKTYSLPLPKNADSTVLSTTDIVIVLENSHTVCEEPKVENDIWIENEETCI
Briefly: [Ca2+]i (aequorin) in capaR-transfected S2 cells. The class given is cell-based. Conditions: for EC50: S2 cells expressing capaR and apoaequorin, maximal - background, mean ± S.E.M., N = 6 (Fig. 1C), read-out: EC50 for stimulated [Ca2+]i responses via capaR; for effect on [Ca2+]i via capaR: 10^−7 M, S2 cells (Fig. 3A). The text has this:
The ORF of capaR was amplified from whole fly cDNA as template using the primers 5′-[…]-3′ and 5′-[…]-3′ and cloned into pMT/V5-His TOPO vector (Invitrogen). The eYFP ORF was fused in-frame at the C-terminus of the capaR using KpnI and ApaI sites and the tagged construct was cloned into the pMT/V5-His TOPO vector.
(§1) The capa peptides Drm-capa-1 (GANMGLYAFPRVamide), Drm-capa-2 (ASGLVAFPRVamide), Drm-PK-1 (TGPSASSGLWFGPRLamide), Drm-PK-2 (SVPFKPRLamide) and hugin gamma (hugg, pQLQSNGEPAYRVRTPRL-amide) were synthesised as C-terminally amidated peptides (Biomatik Corporation, Canada). Peptides were dissolved in distilled ACN/H2O to a concentration of 1 mM and then diluted to the required working concentration in Schneider's medium (Invitrogen Inc.). Human neuromedin U-25 was purchased from Sigma. Rabbit polyclonal antibody to porcine neuromedinU-8 was purchased from Progen biotechnik (Heidelberg, Germany). Rabbit capa precursor peptide used was described in [21] Rabbit anti-peptide antibody was raised against the capaR epitope (CQQGTNNRETRNSQM) by Genosphere Biotechnologies (Paris, France) and purified on a HiTrap NHS-activated HP column (Amersham Pharmacia Bio-tech; Buckinghamshire, UK) according to the manufacturer's instructions. Immunohistochemistry was carried out as described previously. Mouse anti-GFP primary antibody (Zymed) and the antiserum to neuromedinU-8 were all diluted 1∶1000 or, in the case of the pre-immune serum, the affinity-purified capaR antibody and the antiserum to the capa precursor peptide, 1∶500. Incubations in the primary antibodies were performed overnight. A FITC-conjugated affinity-purified goat anti-mouse antibody (Jackson Immunologicals) was used in a dilution of 1∶1,000 for visualization of the mouse monoclonal anti-GFP. A Texas red-conjugated affinity-purified goat anti-rabbit antibody (Jackson Immunologicals) was used at a dilution of 1∶1,000 for visualization of the rabbit capaR antiserum.
(§2) Drosophila S2 cells, cultured under standard conditions were transiently transfected with the apoaequorin ORF [21] and a receptor ORF construct, and expression induced using CuSO4. Transfected S2 cells were harvested and incubated with 2.5 µM coelenterazine in the dark at RT for 1–2 h as previously described. 25,000 cells were then placed in 135 µl Schneider's medium supplemented with 10% FCS in a well of a white polystyrene 96-well plate (Berthold Technologies). Bioluminescence recordings were carried out using a Mithras LB940 automated 96-well plate reader (Berthold Technologies) and MikroWin software. 15 µl of each of different peptides were applied to final concentrations as required. At the end of each recording samples were disrupted by the addition of 100 µl lysis solution, and the [Ca^2+] concentrations calculated as previously described. For assays in Ca^2+-free medium, transfected cells were collected and pelleted after incubation with coelenterazine. Cell pellets were re-suspended in Ca^2+-free Schneider's medium (Invitrogen Inc.) without FCS and collected by centrifugation. The washing and pelleting procedure was repeated once more. Experiments were then carried out on 25,000 cells per sample as above. To verify whether the observed calcium signal was linked to phospholipase C (PLC) activation, S2-capaR cells were preincubated with the PLC inhibitor U73122 at concentration of 10^−3 M to 10^−8 M for 10 min. Luminometry experiments were carried out on live, intact tubules expressing a targeted transgene for cytosolic-targeted apoaequorin in either principal or stellate cells as previously described, [22]. For in vivo tubule experiments, flies of the following genotypes were used: c42aeq, capaR-GAL4, UAS-capaR, UAS-capaR RNAi, UAS-NMUR 2 and the resulting progeny from GAL4>UAS crosses.

A further assay has as its system phospholipase C (PLC). Briefly: PLC inhibition: capa-1-induced [Ca2+]i response in S2-capaR cells. Type of assay: cell-based, Drosophila. Conditions: Fig. 1D. Here is the method:
as §2, with “To verify whether the observed calcium signal was linked to phospholipase C (PLC) activation, S2-capaR cells were preincubated with the PLC inhibitor U73122 at concentration of 10^−3 M to 10^−8 M for 10 min. Luminometry experiments were carried out on live, intact tubules expressing a targeted transgene for cytosolic-targeted apoaequorin in either principal or stellate cells as previously described, [22]. For in vivo tubule experiments, flies of the following genotypes were used: c42aeq, capaR-GAL4, UAS-capaR, UAS-capaR RNAi, UAS-NMUR 2 and the resulting progeny from GAL4>UAS crosses.” left out

The subject of another assay is NMR 1. Also on record: method as in earlier work. Conditions: CHO cells; ref 39 (Fujii et al.); cited from earlier work.
The target in the next assay is T2, NMU receptor 2 (NMUR 2) (Homo sapiens, UniProt Q9GZQ4).
T2 construct: expressed in transfected cells; host or cells: Drosophila S2 cells (pMT/V5-His TOPO)
T2 sequence (Q9GZQ4 whole entry): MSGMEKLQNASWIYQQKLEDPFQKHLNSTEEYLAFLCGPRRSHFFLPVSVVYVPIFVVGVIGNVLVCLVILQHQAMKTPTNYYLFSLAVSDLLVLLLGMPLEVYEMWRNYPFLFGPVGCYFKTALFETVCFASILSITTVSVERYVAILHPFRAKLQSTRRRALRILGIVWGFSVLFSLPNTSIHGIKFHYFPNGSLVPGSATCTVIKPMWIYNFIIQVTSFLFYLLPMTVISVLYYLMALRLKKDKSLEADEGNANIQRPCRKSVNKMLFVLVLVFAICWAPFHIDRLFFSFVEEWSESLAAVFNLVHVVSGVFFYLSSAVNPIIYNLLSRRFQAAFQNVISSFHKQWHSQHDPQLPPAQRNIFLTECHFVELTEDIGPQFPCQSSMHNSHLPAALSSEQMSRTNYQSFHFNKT
Briefly: [Ca2+]i (aequorin) in NMUR 2-transfected S2 cells. To be noted: 10^−7 M, S2 cells (Fig. 3B). The class given is cell-based. The method, then: as §1
as §2, with “Experiments were then carried out on 25,000 cells per sample as above. To verify whether the observed calcium signal was linked to phospholipase C (PLC) activation, S2-capaR cells were preincubated with the PLC inhibitor U73122 at concentration of 10^−3 M to 10^−8 M for 10 min. Luminometry experiments were carried out on live, intact tubules expressing a targeted transgene for cytosolic-targeted apoaequorin in either principal or stellate cells as previously described, [22]. For in vivo tubule experiments, flies of the following genotypes were used: c42aeq, capaR-GAL4, UAS-capaR, UAS-capaR RNAi, UAS-NMUR 2 and the resulting progeny from GAL4>UAS crosses.” left out

A further assay concerns CG8795 (hugin receptor). Briefly: [Ca2+]i (aequorin) in CG8795-transfected S2 cells. Type of assay: cell-based, Drosophila. Conditions: 10^−7 M, S2 cells (Fig. 3C). Here is the method: as §1, with “A Texas red-conjugated affinity-purified goat anti-rabbit antibody (Jackson Immunologicals) was used at a dilution of 1∶1,000 for visualization of the rabbit capaR antiserum.” left out
Drosophila S2 cells, cultured under standard conditions were transiently transfected with the apoaequorin ORF [21] and a receptor ORF construct, and expression induced using CuSO4. […] Bioluminescence recordings were carried out using a Mithras LB940 automated 96-well plate reader (Berthold Technologies) and MikroWin software. […] At the end of each recording samples were disrupted by the addition of 100 µl lysis solution, and the [Ca^2+] concentrations calculated as previously described. […]

A further assay has as its system Malpighian tubule. Briefly: Fluid transport by wild-type Malpighian tubules. To be noted: 10^−7 M; mean ± SEM, N = 6–10, Student's t-test P<0.05 (Fig. 4A). Also on record: species or system Drosophila melanogaster. Here is the method: Fluid transport assays were carried out as previously described using live, intact tubules dissected from 7-day-old adults with the following genotypes: wild-type Canton-S, c42-GAL4>UAS-capaR RNAi, actin-GAL4>UAS-NMUR 2. Fluid droplets were collected every 10 min, and the volumes of fluid were calculated. Basal rates of fluid secretion were monitored for 30 min, whereupon peptide was added, and the secretion rate was then recorded for a further 30 min.

Assay [1] has as its target T3, capa receptor (capaR, CG14575) expressed in S2 cells (D. melanogaster) (UniProt Q8ITC7).
T3 sequence: T1 sequence (Q8ITC7 1-477)

Assay [2] has as its target T3, capa receptor (capaR, CG14575) expressed in S2 cells (D. melanogaster). This is another data set of the same source.
Assay [3] addresses human neuromedin U receptor 2 (human) (UniProt Q9GZQ4).

Sequence of human neuromedin U receptor 2 (human) (Q9GZQ4 whole entry): as above

For orientation: EC50 means the midpoint of the concentration-response curve. For `CSCC[C@H](NC(=O)[C@H](CC(N)=O)NC(=O)[C@H](C)NC(=O)CN)C(=O)NCC(=O)N[C@@H](CC(C)C)C(=O)N[C@@H](Cc1ccc(O)cc1)C(=O)N[C@@H](C)C(=O)N[C@@H](Cc1ccccc1)C(=O)N1CCC[C@H]1C(=O)N[C@@H](CCCNC(=N)N)C(=O)N[C@H](C(N)=O)C(C)C` [capa-1], at capaR (CG14575), the EC50 was 3.06 nM.

Consider `COc1ccc2c(c1)CC[C@@H]1[C@@H]2CC[C@]2(C)[C@@H](NCCCCCCN3C(=O)C=CC3=O)CC[C@@H]12` [U73122], for which the “inhibition of capa-1-induced [Ca2+]i response” value in the assay on phospholipase C (PLC) is listed as “inhibited by the widely-used PLC inhibitor (U73122) in a dose-dependent manner”.

Take `CC(C)C[C@H](NC(=O)CNC(=O)[C@H](CO)NC(=O)[C@H](C)N)C(=O)N[C@H](C(=O)N[C@@H](C)C(=O)N[C@@H](Cc1ccccc1)C(=O)N1CCC[C@H]1C(=O)N[C@@H](CCCNC(=N)N)C(=O)N[C@H](C(N)=O)C(C)C)C(C)C` [capa-2]: the half-maximal effective concentration (EC50) on capaR (CG14575) was found to be 4.32 nM.

For MNYLAFPRM-NH2 [SCPB], the “agonistic activity to NMR 1” value in the assay with NMR 1 was “significant agonistic activity”.

“pQLQSNGEPAYRVRTPRL-amide [hugg, hugin gamma, p…-amide]”: the “effect on [Ca2+]i via capaR” value on capaR (CG14575) was “but not hugg nor Drm-PK-2, increases intracellular calcium ([Ca^2+]i) levels via capaR”. The “effect on [Ca2+]i via NMUR 2” value on NMU receptor 2 (NMUR 2) is “increases [Ca^2+]i via NMUR 2 but to a reduced level compared to capa-1”. Also, in the assay with CG8795 (hugin receptor), the “effect on [Ca2+]i via CG8795” value was “stimulates increased [Ca^2+]i levels”. In addition, the “fluid transport by wild-type tubules” value in the assay with Malpighian tubule is “not with Drm-PK-1, hugg, Drm-PK-2”.

With “TGPSASSGLWFGPRL-NH2 [Drm-PK-1, Drosophila pyrokinin, …amide]”, the “effect on [Ca2+]i via capaR” value on capaR (CG14575) is “do not have effects on either capaR”. Besides, the “effect on [Ca2+]i via NMUR 2” value on NMU receptor 2 (NMUR 2) is reported as “do not have effects on either capaR (Fig. 3A) or NMUR 2”. In the assay with CG8795 (hugin receptor), the “effect on [Ca2+]i via CG8795” value is “stimulates increased [Ca^2+]i levels”. For the same molecule, the “fluid transport by wild-type tubules” value in the assay on Malpighian tubule is recorded as “not with Drm-PK-1, hugg, Drm-PK-2”.

For the molecule “SVPFKPRL-NH2 [Drm-PK-2, Drosophila pyrokinin, SVPFKPRLamide]”, at capaR (CG14575), the “effect on [Ca2+]i via capaR” value is given as “do not have effects on either capaR”. For the same molecule, at NMU receptor 2 (NMUR 2), the “effect on [Ca2+]i via NMUR 2” value is on record as “do not have effects on either capaR (Fig. 3A) or NMUR 2”. The “effect on [Ca2+]i via CG8795” value in the assay on CG8795 (hugin receptor) is “stimulates increased [Ca^2+]i levels”. Besides, in the assay on Malpighian tubule, the “fluid transport by wild-type tubules” value is reported as “not with Drm-PK-1, hugg, Drm-PK-2”.

B1: Drm-capa-2 (peptide)
peptide: ASGLVAFPRV-NH2
B1 displayed a [Ca2+]i (aequorin luminescence) in S2 cells expressing capaR and apoaequorin, dose-response to capa-2 in assay [1] of 4.32 nM.

B2: Drm-capa-1 (peptide)
peptide: GANMGLYAFPRV-NH2
As for B2, the [Ca2+]i (aequorin luminescence) in S2 cells expressing capaR and apoaequorin, dose-response to capa-1 in assay [1] worked out at 3.06 nM.

B3: Human neuromedin U-25 (peptide)
peptide: FRVDEEFQSPFASQSRGYFLFRPRN-NH2
With B3, in assay [2], the [Ca2+]i, dose-response to NMU-25; first of two values given 'respectively', probably capaR- and apoaequorin-co-transfected S2 cells was determined as 21.8 nM; the [Ca2+]i, dose-response to NMU-25; second of two values given 'respectively', probably intact tubules expressing apoaequorin in principal cells (endogenous capaR) turned out to be 27.1 nM. This molecule also yielded a [Ca2+]i in S2 cells expressing NMUR 2 and apoaequorin, dose-response to NMU-25 in assay [3] of 0.91 nM.
